Reference: US20260250320A1, “LIPIDATED PEPTIDE INHIBITORS OF INTERLEUKIN-23 RECEPTOR” (Janssen Pharmaceutica NV, priority 2023, published 2026)
*1 amine or outer side, *2 acyl side, *3 side chain or, on linkers, in order; H or OH if unused. Where a SMILES comes first, the peptide text is derived from it. Bridges are numbered along the chain shown (N, C = ends). Side-chain parts run from the residue outwards. [ ]: non-standard residue; d: D form. The star is where a group is joined. ξ: configuration not given here. X9 = O=C(O)CCCCCCCCCCCCCCCCC(=O)N[C@@H](CCC(=O)NCCOCCOCCOCCOCCOCCOCCOCCOCCOCCOCCOCCCCCC(=O)*)C(=O)O; X4 = C[N+](C)(CCCCCCc1ccc(C[C@H](N[*:1])C(=O)[*:2])cc1)CCOCCOCCN[*:3]; X5 = O=C(O)CCCCCCCCCCCCCCCCC(=O)N[C@@H](CCC(=O)NC(=O)*)C(=O)O; Me3N+CH2CH2(OCH2CH2)4CO = C[N+](C)(C)CCOCCOCCOCCOCCC(=O)*; Me3N+(CH2)2O(CH2)2O(CH2)2CO = C[N+](C)(C)CCOCCOCCC(=O)*; X28 = CC(=O)[C@H](CCC(=O)*)NC(=O)CCCCCCCCCCCCCCCCC(=O)O; Trp(7-Me) = Cc1cccc2c(C[C@H](N)C(=O)O)c[nH]c12; C18 diacid = O=C(O)CCCCCCCCCCCCCCCCC(=O)*; X6 = CN(CC[C@H](N[*:1])C(=O)[*:2])[*:3]; γGlu = O=C(O)[C@H](CCC(=O)[*:2])N[*:1]; 2Nal = N[C@@H](Cc1ccc2ccccc2c1)C(=O)O; AEF = NCCOc1ccc(C[C@H](N)C(=O)O)cc1; PEG6 = NCCOCCOCCOCCOCCOCCOCCC(=O)O; X2 = C[N+](C)(C)C[C@@H](CC(=O)O)N*; ξAEF = NCCOc1ccc(CC(N)C(=O)O)cc1; 3Pal = N[C@@H](Cc1cccnc1)C(=O)O; Lys(Me) = CNCCCC[C@H](N)C(=O)O; NMeK = CN[C@@H](CCCCN)C(=O)O; Pen = CC(C)(S)[C@H](N)C(=O)O; Suc = O=C(CCC(=O)[*:2])[*:1]; Thp = NC1(C(=O)O)CCOCC1; X1 = C[N+](C)(C)CCCCC*; AEEA = NCCOCCOCC(=O)O; Sar = CNCC(=O)O

What was measured:
IL-23R = biological target: T1, IL-23R (Homo sapiens, UniProt Q5VWK5); assay: IL23R Reporter Assay; format: cell-based; conditions: HEK293 cells containing IL-23R, IL-12Rβ1 and STAT-inducible firefly luciferase reporter; 10 ng/mL IL-23 (EC90); 5 h
T1 construct: HEK293 cells containing IL-23R, IL-12Rβ1 and a firefly luciferase reporter gene driven by a STAT-inducible promoter (Promega); host or cells: HEK293
T1 sequence (Q5VWK5 24-629): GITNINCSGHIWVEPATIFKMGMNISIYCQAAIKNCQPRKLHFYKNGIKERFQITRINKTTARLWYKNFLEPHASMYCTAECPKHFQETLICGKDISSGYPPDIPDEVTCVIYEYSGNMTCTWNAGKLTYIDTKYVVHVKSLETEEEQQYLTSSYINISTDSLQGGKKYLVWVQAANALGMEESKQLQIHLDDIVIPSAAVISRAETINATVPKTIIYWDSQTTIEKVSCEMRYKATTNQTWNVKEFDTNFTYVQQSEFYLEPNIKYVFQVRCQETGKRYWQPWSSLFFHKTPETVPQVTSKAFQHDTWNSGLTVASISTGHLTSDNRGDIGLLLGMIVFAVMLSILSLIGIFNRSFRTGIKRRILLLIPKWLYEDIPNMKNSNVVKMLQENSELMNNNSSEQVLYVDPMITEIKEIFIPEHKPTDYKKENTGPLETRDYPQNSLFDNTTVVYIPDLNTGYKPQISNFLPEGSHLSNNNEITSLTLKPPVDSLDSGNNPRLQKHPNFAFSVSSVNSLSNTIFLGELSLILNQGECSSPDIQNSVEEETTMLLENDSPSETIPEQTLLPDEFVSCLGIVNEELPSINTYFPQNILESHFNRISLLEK
How it was run: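 HEK293 cells carrying IL-23R, IL-12Rβ1 and a STAT-driven firefly luciferase reporter (4000 cells/well) received compound, then 10 ng/mL IL-23 solution (EC90), and were incubated for 5 h at 37° C. BioGlo luminescence was normalised to IL-23 alone (0%) and 30 μM control inhibitor (100%). IC50 came from a 4-parameter Hill fit.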

[1] = system: IL-23-stimulated phosphorylated STAT3 in peripheral blood mononuclear cells (PBMCs); assay: PBMC pSTAT3 Assay; format: cell-based; conditions: PBMCs from healthy donors; 30 min preincubation with peptide; IL-23 5 ng/mL for 30 min; phospho-STAT3 by MSD
How it was run: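 Healthy-donor PBMCs expanded 4 days on anti-CD3 with 100 ng/mL IL-1β, starved ~4 h in RPMI-0.1% BSA, preincubated 30 min with peptide, then stimulated 30 min at 37 °C with 5 ng/mL IL-23. Lysate pSTAT3 measured by MSD phospho-STAT panel; IC50 derived.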

Row | IC50 (IL-23R) [nM] | SMILES | IC50 [1] [nM]
1 | < 50 | CC(=O)N(C)CCCC[C@@H]1NC(=O)[C@H](Cc2c[nH]c3c(C)cccc23)NC(=O)[C@H]([C@@H](C)O)NC(=O)[C@H](CCCCNC(=O)CCCCCOCCOCCOCCOCCOCCOCCOCCOCCOCCOCCOCCNC(=O)CC[C@H](NC(=O)CCCCCCCCCCCCCCCCC(=O)O)C(=O)O)NC(=O)[C@@H](NC(=O)CCOCCOCC[N+](C)(C)C)C(C)(C)SSC(C)(C)[C@@H](C(=O)N[C@@H](Cc2ccc(OCCCCC[N+](C)(C)C)cc2)C(=O)N[C@@H](Cc2ccc3ccccc3c2)C(=O)NC2(C(=O)N[C@@H](CCCCN(C)C(C)=O)C(=O)N[C@@H](CC(N)=O)C(=O)N[C@@H](Cc3cccnc3)C(=O)N(C)CC(=O)N(C)C)CCOCC2)NC1=O [compound 115, cPEG3aCO-Pen(3)-K(PEG12gEC20OH)-T-7MeW-K(NMeAc)-Pen(3)-TMAPF-2Nal-THP-K(NMeAc)-N-3Pya-Sar-CON(Me)2] ({Me3N+(CH2)2O(CH2)2O(CH2)2CO}-[Pen]K(X9)T[Trp(7-Me)][Lys(Me)](Ac)[Pen]Y(X1)[2Nal][Thp][Lys(Me)](Ac)N[3Pal][Sar]-NMe2; disulfide 1-6) | 0.5 to 5
2 | 50 to 500 | CC(=O)N(C)CCCC[C@H](NC(=O)CNC(=O)[C@H](Cc1ccc2ccccc2c1)NC(=O)[C@H](Cc1ccc(OCCCCC[N+](C)(C)C)cc1)NC(=O)[C@H]1NC(=O)[C@H](CCCCNC(=O)COCCOCCNC(=O)COCCOCCNC(=O)CC[C@H](NC(=O)CCCCCCCCCCCCCCCCC(=O)O)C(=O)O)NC(=O)[C@H](Cc2c[nH]c3c(C)cccc23)NC(=O)[C@H]([C@@H](C)O)NC(=O)[C@H](CC(=O)N(C)C)NC(=O)[C@@H](NC(=O)CCOCCOCC[N+](C)(C)C)C(C)(C)SSC1(C)C)C(=O)N[C@@H](CC(N)=O)C(=O)N[C@@H](Cc1cccnc1)C(=O)N(C)CC(=O)N(C)C [compound 157, cPEG3aCO-Pen(3)-N(N(Me)2)-T-7MeW-K(PEG2PEG2gEC18OH)-Pen(3)-APEG3F-2Nal-THP-K(NMeAc)-N-3Pya-Sar-CON(Me)2] ({Me3N+(CH2)2O(CH2)2O(CH2)2CO}-[Pen]D(NMe2)T[Trp(7-Me)]K([AEEA-AEEA-γGlu-C18 diacid])[Pen]Y(X1)[2Nal]G[Lys(Me)](Ac)N[3Pal][Sar]-NMe2; disulfide 1-6) | 0.5 to 5
3 | ≥ 500 | CC(=O)N(C)CCCC[C@@H]1NC(=O)[C@H](Cc2c[nH]c3c(C)cccc23)NC(=O)[C@H]([C@@H](C)O)NC(=O)[C@H](CC(=O)N(C)C)NC(=O)[C@@H](NC(=O)CCOCCOCC[N+](C)(C)C)C(C)(C)SSC(C)(C)[C@@H](C(=O)N[C@@H](Cc2ccc(CCCCCC[N+](C)(C)CCOCCOCCNC(=O)COCCOCCNC(=O)CC[C@H](NC(=O)CCCCCCCCCCCCCCCCC(=O)O)C(=O)O)cc2)C(=O)N[C@@H](Cc2ccc3ccccc3c2)C(=O)NC2(C(=O)N[C@@H](CC(N)=O)C(=O)N[C@@H](Cc3cccnc3)C(=O)N(C)CC(=O)N(C)C)CCOCC2)NC1=O [compound 143, cPEG3aCO-Pen(3)-N(N(Me)2)-T-7MeW-K(NMeAc)-Pen(3)-TMAPF(PEG2PEG2gEC18OH)-2Nal-THP-N-3Pya-Sar-CON(Me)2] ({Me3N+(CH2)2O(CH2)2O(CH2)2CO}-[Pen]D(NMe2)T[Trp(7-Me)][Lys(Me)](Ac)[Pen][X4]([AEEA-γGlu-C18 diacid])[2Nal][Thp]N[3Pal][Sar]-NMe2; disulfide 1-6) | ≥ 5

Further lines, the molecule ahead of its results:

Row | SMILES | IC50 (IL-23R) [nM] | IC50 [1] [nM]
4 | CC(=O)NCCCC[C@@H]1NC(=O)[C@H](Cc2c[nH]c3c(C)cccc23)NC(=O)[C@H]([C@@H](C)O)NC(=O)[C@H](CC(N)=O)NC(=O)[C@@H](NC(C)=O)C(C)(C)SSC(C)(C)[C@@H](C(=O)N[C@@H](Cc2ccc(OCCNC(=O)COCCOCCNC(=O)COCCOCCNC(=O)CC[C@H](NC(=O)CCCCCCCCCCCCCCCCC(=O)O)C(=O)O)cc2)C(=O)N[C@@H](Cc2ccc3ccccc3c2)C(=O)NC2(C(=O)N[C@@H](CCCCNC(=O)CCC(=O)N[C@H](CC(=O)O)C[N+](C)(C)C)C(=O)N[C@@H](CC(N)=O)C(=O)N[C@@H](Cc3cccnc3)C(=O)N(C)CC(N)=O)CCOCC2)NC1=O [compound 8, MeCO-Pen(3)-N-T-7MeW-K(Ac)-Pen(3)-AEF(PEG2PEG2gEC18OH)-2Nal-THP-K(d)-N-3Pya-Sar-CONH2] (Ac-[Pen]NT[Trp(7-Me)]K(Ac)[Pen][AEF]([AEEA-AEEA-γGlu-C18 diacid])[2Nal][Thp]K([Suc-X2])N[3Pal][Sar]-NH2; disulfide 1-6) | < 50 | < 0.5
5 | CC(=O)NCCCC[C@@H]1NC(=O)[C@H](CC2CNc3c(C)cccc32)NC(=O)[C@H]([C@@H](C)O)NC(=O)[C@H](CC(N)=O)NC(=O)[C@@H](NC(=O)CCOCCOCC[N+](C)(C)C)C(C)(C)SSC(C)(C)[C@@H](C(=O)N[C@@H](Cc2ccc(OCCN)cc2)C(=O)N[C@@H](Cc2ccc3ccccc3c2)C(=O)NC2(C(=O)N[C@@H](CCCCNC(=O)COCCOCCNC(=O)COCCOCCNC(=O)CC[C@H](NC(=O)CCCCCCCCCCCCCCCCC(=O)O)C(=O)O)C(=O)N[C@@H](CC(N)=O)C(=O)N[C@@H](Cc3cccnc3)C(=O)N(C)CC(N)=O)CCOCC2)NC1=O (stereo partly drawn) [compound 78, cPEG3aCO-Pen(3)-N-T-7MeW-K(Ac)-Pen(3)-AEF-2Nal-THP-K(PEG2PEG2gEC18OH)-N-3Pya-Sar-CONH2] | 50 to 500 | < 0.5
6 | CC(=O)NCCCC[C@@H]1NC(=O)[C@H](Cc2c[nH]c3c(C)cccc23)NC(=O)[C@H]([C@@H](C)O)NC(=O)[C@H](CC(N)=O)NC(=O)[C@@H](NC(=O)[C@@H](CCCNC(=N)N)NC(=O)CCC(=O)N[C@H](CC(=O)O)C[N+](C)(C)C)C(C)(C)SSC(C)(C)[C@@H](C(=O)N[C@@H](Cc2ccc(OCCNC(=O)COCCOCCNC(=O)COCCOCCNC(=O)NC(=O)CC[C@H](NC(=O)CCCCCCCCCCCCCCCCC(=O)O)C(=O)O)cc2)C(=O)N[C@@H](Cc2ccc3ccccc3c2)C(=O)NC2(C(=O)N[C@@H](CCC(=O)O)C(=O)N[C@@H](CC(N)=O)C(=O)N[C@@H](Cc3cccnc3)C(=O)N(C)CC(N)=O)CCOCC2)NC1=O [compound 11, succiniccarn-r-Pen(3)-N-T-7MeW-K(Ac)-Pen(3)-AEF(PEG2PEG2gEC18OH)-2Nal-THP-E-N-3Pya-Sar-CONH2] ({X2-Suc}-[dR][Pen]NT[Trp(7-Me)]K(Ac)[Pen][AEF]([AEEA-AEEA-X5])[2Nal][Thp]EN[3Pal][Sar]-NH2; disulfide 2-7) | 50 to 500 | 0.5 to 5
7 | CC(=O)[C@H](CCC(=O)NCCOCCOCCOCCOCCOCCOCCC(=O)NCCCC[C@@H](C(N)=O)N(C)C(=O)[C@H](Cc1cccnc1)NC(=O)[C@H](CC(N)=O)NC(=O)[C@H](CCC(=O)O)NC(=O)C1(NC(=O)[C@H](Cc2ccc3ccccc3c2)NC(=O)C(Cc2ccc(OCCN)cc2)NC(=O)[C@H]2NC(=O)[C@H](CCN(C)C(=O)CCOCCOCCOCCOCC[N+](C)(C)C)NC(=O)[C@H](Cc3c[nH]c4c(C)cccc34)NC(=O)[C@H]([C@@H](C)O)NC(=O)[C@H](CC(=O)N(C)C)NC(=O)[C@@H](NC(=O)CCOCCOCCOCCOCC[N+](C)(C)C)C(C)(C)SSC2(C)C)CCOCC1)NC(=O)CCCCCCCCCCCCCCCCC(=O)O (some centres unmarked) [compound 90, cPEG5aCO-Pen(3)-N(N(Me)2)-T-7MeW-Dab(NMecPEG5a)-Pen(3)-AEF-2Nal-THP-E-N-3Pya-NMeK(PEG6gEC18OH)-CONH2] ({Me3N+CH2CH2(OCH2CH2)4CO}-[Pen]D(NMe2)T[Trp(7-Me)][X6](Me3N+CH2CH2(OCH2CH2)4CO)[Pen][ξAEF][2Nal][Thp]EN[3Pal][NMeK]([PEG6-X28])-NH2; disulfide 1-6) | 50 to 500 | < 0.5
